For 18 molecules, EC50, IC50 and melting point results are on record in patent US7893055B2, “HIV integrase inhibitors” (priority 2006, dated 2011).

Data set [1] concerns recombinant NL-Rluc virus. Briefly: Inhibition of HIV replication (NL-Rluc virus, luciferase). The format is cell-based. The note with it: NL-Rluc pseudotype virus; serum condition of tabulated values not stated (10% FBS, 15 mg/ml HSA/10% FBS or 40% human serum/5% FBS); read-out: Activity (EC50 class, inhibition of HIV replication).
A further data set addresses T1, HIV-integrase (Human immunodeficiency virus type 1 group M subtype B, UniProt P12497).
T1 construct: Recombinant integrase (0.26 ng) was incubated with the beads
Briefly: HIV-Integrase Inhibition Activity (SPA strand transfer assay). In kind it is biochemical. The note with it: recombinant integrase, SPA beads, P33 labeled target DNA; read-out: Activity (IC50 class, HIV-integrase inhibition). In short, it runs like this:
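Biotinylated substrate DNA (5 pmol) on streptavidin SPA beads was preloaded with 0.26 ng recombinant integrase for 90 min at 37 °C, then washed. Inhibitors and 0.1 fmol 33P-labelled target DNA were added; EDTA (10 mM final) stopped the reaction. Strand-transfer integration was read as bead-associated CPM; IC50 values are grouped into activity bands.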

What is called EC50 is the concentration needed to bring the measured effect to its halfway point. As a reminder, the IC50 is the concentration needed to halve the response being measured. As to “Pyrimido[2,1-c][1,4]oxazine-2- carboxamide, N-(benzo[b]thien-3- ylmethyl)-4,6,7,9-tetrahydro-3- hydroxy-9,9-dimethyl-4-oxo- [Example 40]”, in data set [1], the EC50 lay within 100 to 1000 nM. In addition, the IC50 on HIV-integrase was in the range of 2 to 100 nM.
Broadly, the melting point is the temperature of the solid-liquid transition. In turn, `Cc1ncc(CNC(=O)c2nc3n(c(=O)c2O)CCOC3(C)C)s1` [Example 85, 3-Hydroxy-9,9-dimethyl-N-((2-methylthiazol-5-yl)methyl)-4-oxo-4,6,7,9-tetrahydropyrimido[2,1-c][1,4]oxazine-2-carboxamide] returned a melting point of 245 °C. The IC50 at HIV-integrase was 2 to 100 nM.
As for “Pyrimido[2,1-c][1,4]oxazine-2- carboxamide, 4,6,7,9-tetrahydro-3- hydroxy-9,9-dimethyl-N-[(1- methyl-1H-pyrazol-3-yl)methyl]-4- oxo- [Example 72]”, the EC50 in data set [1] lay in the range of 100 to 1000 nM. The IC50 at HIV-integrase lay in the range of 2 to 100 nM.
As for “Pyrimido[2,1-c][1,4]oxazine-2- carboxamide, N-[(2-bromo-3- thienyl)methy]-4,6,7,9-tetrahydro- 3-hydroxy-9,9-dimethyl-4-oxo- [Example 41]”, the EC50 in data set [1] was in the range of 100 to 1000 nM. Moreover, on HIV-integrase, the IC50 was 2 to 100 nM.
The matching figures for “Pyrimido[2,1-c][1,4]oxazine-2- carboxamide, N-(1,2-benzisoxazol- 3-ylmethyl)-4,6,7,9-tetrahydro-3- hydroxy-9,9-dimethyl-4-oxo- [Example 59]”: 100 to 1000 nM and 2 to 100 nM.
The matching figures for “Pyrimido[2,1-c][1,4]oxazine-2- carboxamide, 4,6,7,9-tetrahydro-3- hydroxy-9,9-dimethyl-N-[[5- methyl-2-(trifluoromethyl)-3- furanyl]methy]-4-oxo- [Example 42]”: 100 to 1000 nM and 2 to 100 nM.
For the molecule “Pyrimido[2,1-c][1,4]oxazine-2- carboxamide, N-[(2,5-dimethyl-3- furanyl)methyl]-4,6,7,9- tetrahydro-3-hydroxy-9,9- dimethyl-4-oxo- [Example 44]”, the EC50 in data set [1] lay in the range of 3 to 100 nM. In addition, the IC50 at HIV-integrase is 2 to 100 nM.
The matching figures for “Pyrimido[2,1-c][1,4]oxazine-2- carboxamide, N-(2- benzofuranylmethyl)-4,6,7,9- tetrahydro-3-hydroxy-9,9- dimethyl-4-oxo- [Example 56]”: 3 to 100 nM and 2 to 100 nM.
The matching figures for “Pyrimido[2,1-c][1,4]oxazine-2- carboxamide, N-[(1-ethyl-1H- pyrazol-3-yl)methyl]-4,6,7,9- tetrahydro-3-hydroxy-9,9- dimethyl-4-oxo- [Example 67]”: 100 to 1000 nM and 2 to 100 nM.
The matching figures for “Pyrimido[2,1-c][1,4]oxazine-2- carboxamide, N-[(4-chloro-1- ethyl-1H-pyrazol-3-yl)methyl]- 4,6,7,9-tetrahydro-3-hydroxy-9,9- dimethyl-4-oxo- [Example 70]”: more than 1000 nM and 2 to 100 nM.
As for `Cc1cc(CNC(=O)c2nc3n(c(=O)c2O)CCOC3(C)C)nn1C` [Example 2, Pyrimido[2,1-c][1,4]oxazine-2-carboxamide, N-[(1,5-dimethyl-1H-pyrazol-3-yl)methyl]-4,6,7,9-tetrahydro-3-hydroxy-9,9-dimethyl-4-oxo-], the IC50 on HIV-integrase fell in the range of 100 to 1000 nM.
The same measure, in the same setting: next, `Cc1cc(CNC(=O)c2nc3n(c(=O)c2O)CCOC3(C)C)nn1C(F)F` [Example 18, Pyrimido[2,1-c][1,4]oxazine-2-carboxamide, N-[[1-(difluoromethyl)-5-methyl-1H-pyrazol-3-yl]methyl]-4,6,7,9-tetrahydro-3-hydroxy-9,9-dimethyl-4-oxo-]: 2 to 100 nM; `CC1(C)OCCn2c1nc(C(=O)NCc1nn(S(C)(=O)=O)c3ccccc13)c(O)c2=O` [Example 78, 3-Hydroxy-9,9-dimethyl-N-((1-(methylsulfonyl)-1H-indazol-3-yl)methyl)-4-oxo-4,6,7,9-tetrahydropyrimido[2,1-c][1,4]oxazine-2-carboxamide]: 2 to 100 nM.
The same measure, in the same setting: as for `CC1(C)OCCn2c1nc(C(=O)NCc1cnn(-c3ccccc3)c1)c(O)c2=O` [Example 6, Pyrimido[2,1-c][1,4]oxazine-2-carboxamide, 4,6,7,9-tetrahydro-3-hydroxy-9,9-dimethyl-4-oxo-N-[(1-phenyl-1H-pyrazol-4-yl)methyl]-], the figure is not below 1000 nM; as for `Cc1cc(Br)c(CNC(=O)c2nc3n(c(=O)c2O)CCOC3(C)C)s1` [Example 33, Pyrimido[2,1-c][1,4]oxazine-2-carboxamide, N-[(3-bromo-5-methyl-2-thienyl)methyl]-4,6,7,9-tetrahydro-3-hydroxy-9,9-dimethyl-4-oxo-], 2 to 100 nM.
In the case of “Pyrimido[2,1-c][1,4]oxazine-2- carboxamide, N-[(1-ethyl-3- methyl-1H-pyrazol-5-yl)methyl]- 4,6,7,9-tetrahydro-3-hydroxy-9,9- dimethyl-4-oxo- [Example 46]”, at HIV-integrase, the IC50 lay in the range of 100 to 1000 nM.
Consider `Cc1cc(CNC(=O)c2nc3n(c(=O)c2O)CCOC3(C)C)nn1CCF` [Example 20, Pyrimido[2,1-c][1,4]oxazine-2-carboxamide, N-[[1-(2-fluoroethyl)-5-methyl-1H-pyrazol-3-yl]methyl]-4,6,7,9-tetrahydro-3-hydroxy-9,9-dimethyl-4-oxo-], for which the IC50 on HIV-integrase is 2 to 100 nM.
On the same count and under the same terms, as for “Pyrimido[2,1-c][1,4]oxazine-2- carboxamide, N-[(1-ethyl-5- methyl-1H-pyrazol-4-yl)methyl]- 4,6,7,9-tetrahydro-3-hydroxy-9,9- dimethyl-4-oxo- [Example 64]”, the figure is 100 to 1000 nM.
